The text below walks through data of US20180050993A1, “NOVEL FLUORINATED DERIVATIVES AS EGFR INHIBITORS USEFUL FOR TREATING CANCERS” (Trillium Therapeutics Inc., priority 2015, published 2018).

pIC50, pKd: −log10 of the molar value. Where a name gives a salt, the structure may show the parent alone. Read-outs that look alike come from different tables or passages of the source.

For one series, the system named is HCC827. Briefly: Comparison with 1st generation inhibitors against a lung cancer cell line (HCC827). The format is cell-based. Particulars: Homo sapiens, read-out: Biochemical IC50.
Series [1] is described as follows: Brain and plasma concentrations after oral gavage in rat, sampling to 4 hours (Table 4). The format is in vivo. Particulars: Table 4 (4 hours); for Kp at 4 h: brain/plasma, po, 50 mg/kg.
The target in a further series is T1, P-gp (Homo sapiens, UniProt P08183).
T1 construct: host or cells: Caco-2 (C2BBe1)
T1 sequence (P08183 whole entry): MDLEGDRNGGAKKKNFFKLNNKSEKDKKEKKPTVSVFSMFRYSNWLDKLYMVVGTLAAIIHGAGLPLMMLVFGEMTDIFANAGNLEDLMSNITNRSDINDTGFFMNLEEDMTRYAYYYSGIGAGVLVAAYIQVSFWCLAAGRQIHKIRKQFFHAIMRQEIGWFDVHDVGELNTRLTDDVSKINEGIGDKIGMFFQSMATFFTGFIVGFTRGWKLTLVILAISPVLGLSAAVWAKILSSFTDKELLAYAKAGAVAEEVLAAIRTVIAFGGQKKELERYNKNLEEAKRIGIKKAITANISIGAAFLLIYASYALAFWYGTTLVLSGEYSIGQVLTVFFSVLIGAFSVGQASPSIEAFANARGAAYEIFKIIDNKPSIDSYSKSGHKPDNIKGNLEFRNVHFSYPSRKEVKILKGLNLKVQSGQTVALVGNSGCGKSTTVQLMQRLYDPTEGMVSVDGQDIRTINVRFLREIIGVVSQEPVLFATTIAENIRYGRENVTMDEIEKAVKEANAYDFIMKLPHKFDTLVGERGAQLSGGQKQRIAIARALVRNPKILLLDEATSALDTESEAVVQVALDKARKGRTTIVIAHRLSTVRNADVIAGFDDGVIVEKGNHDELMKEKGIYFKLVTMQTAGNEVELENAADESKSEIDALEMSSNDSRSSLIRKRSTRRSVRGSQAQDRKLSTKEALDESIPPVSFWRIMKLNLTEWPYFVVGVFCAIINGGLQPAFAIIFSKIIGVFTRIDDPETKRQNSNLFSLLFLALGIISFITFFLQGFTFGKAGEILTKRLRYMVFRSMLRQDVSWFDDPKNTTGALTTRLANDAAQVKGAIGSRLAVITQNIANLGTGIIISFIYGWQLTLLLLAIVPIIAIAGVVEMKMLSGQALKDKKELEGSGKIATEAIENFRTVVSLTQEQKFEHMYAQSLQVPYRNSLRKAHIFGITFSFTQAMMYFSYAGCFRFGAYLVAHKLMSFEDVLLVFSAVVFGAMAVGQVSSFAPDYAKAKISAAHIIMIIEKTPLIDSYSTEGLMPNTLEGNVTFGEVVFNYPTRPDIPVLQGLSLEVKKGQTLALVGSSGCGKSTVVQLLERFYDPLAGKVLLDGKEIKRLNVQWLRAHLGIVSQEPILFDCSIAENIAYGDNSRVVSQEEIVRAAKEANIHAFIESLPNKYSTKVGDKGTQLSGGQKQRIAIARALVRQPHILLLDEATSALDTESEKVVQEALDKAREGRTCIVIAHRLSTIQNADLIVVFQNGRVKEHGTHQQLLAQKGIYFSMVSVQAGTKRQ
Briefly: Evaluation of P-gp efflux in Caco-2 cell monolayers.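 Also: Caco-2 monolayers dosed apically or basolaterally with test compound at 5 µM in HBSS with HEPES and glucose, 37 °C, donor and receiver sampled after 120 min, LC/MS peak areas.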 The series is classed as in vitro ADME.

Series [2] concerns the target T2, EPHA6 (Homo sapiens, UniProt Q9UF33).
T2 sequence (Q9UF33 23-1036): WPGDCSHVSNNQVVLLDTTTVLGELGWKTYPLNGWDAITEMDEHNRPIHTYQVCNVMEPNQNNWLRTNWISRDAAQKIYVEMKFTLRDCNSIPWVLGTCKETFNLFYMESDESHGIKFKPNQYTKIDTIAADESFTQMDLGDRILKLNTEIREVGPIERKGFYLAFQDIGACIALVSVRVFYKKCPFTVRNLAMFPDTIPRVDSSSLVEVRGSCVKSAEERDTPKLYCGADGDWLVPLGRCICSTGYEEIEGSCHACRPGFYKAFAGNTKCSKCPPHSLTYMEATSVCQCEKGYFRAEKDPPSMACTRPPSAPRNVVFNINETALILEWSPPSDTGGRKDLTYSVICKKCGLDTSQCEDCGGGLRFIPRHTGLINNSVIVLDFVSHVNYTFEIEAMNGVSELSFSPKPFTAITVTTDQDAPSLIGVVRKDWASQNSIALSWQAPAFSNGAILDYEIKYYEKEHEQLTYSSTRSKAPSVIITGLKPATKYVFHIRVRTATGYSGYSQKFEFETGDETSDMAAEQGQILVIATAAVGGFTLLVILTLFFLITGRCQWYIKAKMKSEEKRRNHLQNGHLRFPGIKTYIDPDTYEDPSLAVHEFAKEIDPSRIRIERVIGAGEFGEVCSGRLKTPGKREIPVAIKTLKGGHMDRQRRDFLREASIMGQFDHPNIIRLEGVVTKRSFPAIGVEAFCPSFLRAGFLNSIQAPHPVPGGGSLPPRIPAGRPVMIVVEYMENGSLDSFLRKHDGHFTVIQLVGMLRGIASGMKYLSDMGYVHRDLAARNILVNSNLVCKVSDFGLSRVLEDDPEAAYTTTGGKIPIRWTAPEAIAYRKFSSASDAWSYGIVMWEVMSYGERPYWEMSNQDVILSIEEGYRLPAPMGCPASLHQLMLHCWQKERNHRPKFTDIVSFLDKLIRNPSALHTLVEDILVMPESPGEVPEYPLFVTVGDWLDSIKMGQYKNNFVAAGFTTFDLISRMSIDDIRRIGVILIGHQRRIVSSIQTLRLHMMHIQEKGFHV
The series is described as follows: Kinome screen at 300 nM (qPCR competition binding). Set-up: purchased DiscoveRx; host or cells: E. coli BL21-derived (T7 phage) or HEK-293. Particulars: result in words. For orientation: Real-time PCR tracks product formation cycle by cycle.

The target of series [3] is T2, EPHA6. The series is described as follows: Binding constants (Kd) for EPHA6, kinase competition binding with qPCR readout.
[4] abbreviates: male, Sprague-Dawley (SD), brain tissue, PO 50 mg/kg.

Turning to `Fc1ccc(Nc2ncnc3cc(OCCOC(F)F)c(OCCOC(F)F)cc23)c(F)c1Cl` [Compound 2D•HCl, N-(3-chloro-2,4-difluoro-phenyl)-6,7-bis[2-(difluoromethoxy)ethoxy]quinazolin-4-amine], the pIC50 with HCC827 was 7.77. Moreover, the AUClast in series [1] (brain tissue, PO 50 mg/kg) is 25272 ng·h/g. In series [1] (setting [4]), this molecule yielded a maximum concentration (Cmax) of 8040 ng/g. The Tmax in series [1] (setting [4]) is 4 h. Further, the Kp at 4 h was 2.05 in series [1] (male, Sprague-Dawley (SD), read-out: AUCLast Ratio (Brain/Plasma)) and 2.01 in series [1] (male, Sprague-Dawley (SD), read-out: Cmax Ratio (Brain/Plasma)). For the same molecule, the recovery at 120 min, 5 μM on P-gp (Caco-2, pH 7.4, with none (verapamil 0 μM), Caco-2, Verapamil 0 μM, read-out: Recovery (%) AP-BL) is 21.8%; at P-gp (Caco-2, pH 7.4, with none (verapamil 0 μM), Caco-2, Verapamil 0 μM, read-out: Recovery (%) BL-AP) it was 30.4%; at P-gp (Caco-2, pH 7.4, with verapamil 100 μM, Caco-2, Verapamil 100 μM, read-out: Recovery (%) AP-BL), 29.7%; at P-gp (Caco-2, pH 7.4, with verapamil 100 μM, Caco-2, Verapamil 100 μM, read-out: Recovery (%) BL-AP) it was 28.9%. For the same molecule, the Papp A→B at 120 min, 5 μM at P-gp (pH 7.4, Caco-2, Verapamil 0 μM) is 4.02 ×10⁻⁶ cm/s. The same molecule displayed a Papp B→A at 120 min, 5 μM at P-gp (pH 7.4, Caco-2, Verapamil 0 μM) of 2.33 ×10⁻⁶ cm/s. Moreover, the efflux ratio at 120 min, 5 µM on P-gp (pH 7.4, Caco-2, Verapamil 0 μM) was determined as 0.58. At EPHA6 [2], the “selectivity over erlotinib for the ephrin receptor kinase, EPHA6” value is recorded as “did show selectivity over erlotinib”. At EPHA6 [3], this molecule had a pKd of 8.60.

As usually defined, the pIC50 is the IC50 on a negative log10 scale, so that one unit is a factor of ten. One may read the Cmax as the peak of the concentration-time curve. A word on the Tmax: it is the time at which the peak concentration occurs. The term Papp A→B denotes the apparent permeability from the apical to the basolateral side of a cell layer. A higher Papp A→B goes with ready permeation. In general, Papp B→A refers to how fast a substance crosses the layer from the basolateral side. What is called efflux ratio is the permeability from basolateral to apical divided by that in the opposite direction, in the common usage. What is called pKd is the Kd on a negative log10 scale, so that one unit is a factor of ten. High values mean a small Kd, low ones a large Kd.
